Experimental data published in patent publication US6280760A, “Peptide-coated implants and methods for producing same” (Merck Patent Gesellschaft mit beschraenkter Haftung, priority 1997, dated 2001).

Tested on: MC3T3 H1 osteoblasts
Assay: Adhesion of MC3T3 H1 osteoblasts to PMMA moulded articles coated with acrylate RGD peptides
Assay type: cell-based, mouse
Method: For the covalent coupling of these peptides to polymerized PMMA (polymethyl methacrylate) surfaces, appropriate shaped articles of differing porosity (diameter: 10 mm; height: 2 mm) were prepared from three different PMMA components.
Bone cement based on PMMA (Merck KGaA, Germany, Licence No. 5181.00.00) corresponding to the product description (40 g of powder+20 ml of liquid).
10 g of PMMA/PHEMA (polyhydroxyethyl methacrylate) granules, particle size 0.5-0.6 mm (Biomet) were mixed with 1.3 ml of an HEMA solution (68.6% HEMA, 29.4% TEGMA [triethylene glycol dimethacrylate], 2% tBPB, [tert-butyl peroxybenzoate]) and adhered by means of this to a porous support material.
10 g of PMMA granules (Plex Y7H, Rohm, Germany), particle fraction 0.7-2 mm were mixed with 1.5 ml of a methyl methacrylate (MMA) solution (68.6% MMA, 29.4% TEGMA, 2% tBPB) and adhered by this means to a porous support material.
For the covalent coupling of the acrylate peptides to the prepolymerized PMMA moulded articles, stock solutions of the acrylate peptides 1, 2, 3 and 4 were prepared in a final concentration of 100 μM in each case in DMSO/0.2% camphorquinone (w/v). Then, by dilution with isopropanol/0.2% camphorquinone (w/v), concentration series having final peptide concentrations of 0.1 nM, 1 nM, 10 nM, 100 nM, 1 μM and 10 μM in each case were prepared. The moulded articles were incubated in daylight and at room temperature for 2 hours and then stored at 4° C. in the dry state. Before use, the samples were washed with PBS, pH 7.4, to remove unbound peptides and stored at 4° C. in PBS, pH 7.4, overnight.
By addition of 250 μl/moulded article each of a 5% strength BSA solution in PBS, pH 7.4, and subsequent incubation for 2 hours at room temperature and washing once with PBS, pH 7.4, non-specific cell-binding sites were blocked.
Subsequently, the adhesion of osteoblasts of the MC3T3 H1 line, obtained from the calvaria of neonatal mice (Heermeier et al., 1995, Cells and Materials 5: 309-321) to the above-described peptide-coated surfaces was investigated.
The MC3T3 H1 osteoblasts were inoculated at an inoculation density of 48,000 cells/cm^2, as described above, in Costar 48-well plates, with PMMA moulded articles coated with RGD peptide and then incubated for 1 hour at 37° C., 95% atmospheric humidity and 5% CO2. Cells non-adhered during the experiment were then washed off twice with PBS, pH 7.4.
The quantification of the adhered cells was carried out indirectly via the activity determination of the cellular enzyme N-acetylhexosaminidase using an appropriate standard curve according to the method of Landegren (1984, J. Immunol. Methods, 67: 379-388).

cyclo(RGDf[acrylic-ahx-tEG-K]) [acrylate peptide 3]
stimulation of cell adhesion (in words) (PMMA carriers, comparison of anchor lengths): higher activity
cell adsorption rates increased in comparison with uncoated surfaces (bone cement shaped articles, FIG. 8): 5-15 fold
maximal adsorption rates (different PMMA moulded articles, 48,000 cells/cm^2, 1 hour): 80-100%
EC50 (different PMMA moulded articles, read-out: half-maximal cell bindings, RGD peptide concentration in the coating solution): 0.001 to 10 µM
cell adsorption rates increased in comparison with uncoated surfaces (porous PMMA/PHEMA granule shaped articles, FIG. 9): 2-5 fold
cell adsorption rates increased in comparison with uncoated surfaces (porous Plex Y7H granule shaped articles, FIG. 10): 2-3 fold
